# According to patent publication US7700136B2, “Scutellaria barbata extract for the treatment of cancer” (priority 2005, dated 2010):
# System: subcutaneous cancer xenografts
# Format: in vivo, mice
# Settings: oral; BZL101 0.5 ml gavage every third day; cyclophosphamide 25 mg/Kg/day in drinking water; FIG. 6
# Description: As in Example 1, above, 10^5 cells were administered to each animal subcutaneously on Day 0. The animals were divided into four groups. The control group received only normal drinking water. The cyclophosphamide only group received 25 mg/Kg/day of cyclophosphamide in their drinking water.
structure (smiles),measurement,value
O=P1(N(CCCl)CCCl)NCCCO1 (stereo not shown) [cyclophosphamide],tumor growth inhibition,inhibited tumor growth as compared to the control
